We go through eleven molecules from ChEMBL document CHEMBL1909046, “DrugMatrix in vitro pharmacology data”.

Structures are written as SMILES.

The term IC50 denotes the midpoint of a concentration-inhibition curve. What is called Ki is a dissociation constant, usually derived from enzyme kinetics or from competition with a known ligand.

Tyrosine-protein kinase Fyn, sequence (P06241 whole entry): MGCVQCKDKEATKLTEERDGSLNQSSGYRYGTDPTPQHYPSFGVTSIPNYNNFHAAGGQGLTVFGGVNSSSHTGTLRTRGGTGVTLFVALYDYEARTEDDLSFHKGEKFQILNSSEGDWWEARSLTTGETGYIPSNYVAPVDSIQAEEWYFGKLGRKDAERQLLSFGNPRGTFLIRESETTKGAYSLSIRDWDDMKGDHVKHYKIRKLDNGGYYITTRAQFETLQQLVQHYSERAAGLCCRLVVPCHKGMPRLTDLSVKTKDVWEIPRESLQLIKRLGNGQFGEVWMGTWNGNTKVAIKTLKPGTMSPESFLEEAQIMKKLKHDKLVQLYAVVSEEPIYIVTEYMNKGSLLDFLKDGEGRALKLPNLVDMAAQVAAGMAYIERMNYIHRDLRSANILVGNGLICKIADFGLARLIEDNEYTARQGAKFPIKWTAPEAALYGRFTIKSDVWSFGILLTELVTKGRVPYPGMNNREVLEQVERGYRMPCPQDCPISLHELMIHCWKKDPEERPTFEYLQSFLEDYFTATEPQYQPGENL
Histamine H2 receptor, sequence (P25021 whole entry): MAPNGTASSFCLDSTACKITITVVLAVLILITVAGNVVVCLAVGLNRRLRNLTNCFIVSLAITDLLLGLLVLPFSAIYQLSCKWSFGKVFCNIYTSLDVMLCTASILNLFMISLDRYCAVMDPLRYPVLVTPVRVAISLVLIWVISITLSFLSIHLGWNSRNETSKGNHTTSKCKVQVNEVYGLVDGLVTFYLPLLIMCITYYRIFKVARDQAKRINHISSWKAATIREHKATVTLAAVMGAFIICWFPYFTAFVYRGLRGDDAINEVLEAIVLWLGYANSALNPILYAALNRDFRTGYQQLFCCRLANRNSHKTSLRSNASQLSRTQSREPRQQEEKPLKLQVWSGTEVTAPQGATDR

The first assay addresses T1, Endothelin-1 receptor (Homo sapiens, UniProt P25101).
T1 sequence (P25101 whole entry): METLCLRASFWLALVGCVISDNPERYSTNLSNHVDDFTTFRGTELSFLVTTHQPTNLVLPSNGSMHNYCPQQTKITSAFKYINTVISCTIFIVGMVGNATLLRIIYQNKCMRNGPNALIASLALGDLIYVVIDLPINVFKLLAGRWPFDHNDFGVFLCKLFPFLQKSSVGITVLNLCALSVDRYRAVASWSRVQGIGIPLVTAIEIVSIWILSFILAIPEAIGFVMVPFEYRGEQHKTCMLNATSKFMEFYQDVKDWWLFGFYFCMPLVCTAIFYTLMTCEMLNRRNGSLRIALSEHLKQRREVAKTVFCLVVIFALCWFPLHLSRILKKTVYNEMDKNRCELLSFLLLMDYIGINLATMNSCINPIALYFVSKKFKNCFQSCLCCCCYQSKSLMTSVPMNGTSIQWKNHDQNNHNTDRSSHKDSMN
Assay: not given
The note with it: cho-k1. The assay is classed as cell membranes, Membrane.
On to `COc1ccc2c(c1)c(CC(=O)O)c(C)n2C(=O)c1ccc(Cl)cc1` [INDOMETHACIN], for which the IC50 entry was “Not Active”.
Same read-out and setting: to `CCc1c2c(nc3ccc(OC(=O)N4CCC(N5CCCCC5)CC4)cc13)-c1cc3c(c(=O)n1C2)COC(=O)[C@]3(O)CC` [IRINOTECAN] belongs “Not Active”; to `CC(C(=O)O)c1cccc(C(=O)c2ccccc2)c1` (stereo not drawn) [KETOPROFEN], “Not Active”.
Same read-out and setting: then `Nc1ccn([C@@H]2CS[C@H](CO)O2)c(=O)n1` [LAMIVUDINE], with “Not Active”; and `O=S(=O)([O-])CCS.[Na+]` [MESNA], with “Not Active”; and `C#C[C@]1(O)CC[C@H]2[C@@H]3CCc4cc(OC)ccc4[C@H]3CC[C@@]21C` [MESTRANOL], with “Not Active”.
With `CC(=O)Nc1cccc(O)c1` [METACETAMOL], the IC50 result is “Not Active”.
Regarding `Cc1ncc([N+](=O)[O-])n1CCO` [METRONIDAZOLE], the IC50 entry is “Not Active”.
For the molecule `CC(C)(C(=O)c1cccnc1)c1cccnc1` [METYRAPONE], the IC50 result is given as “Not Active”.
Regarding `Oc1ccc(OCc2ccccc2)cc1` [MONOBENZONE], the IC50 entry is “Not Active”.
On to `CC(C)(Oc1ccc(C2CCCc3ccccc32)cc1)C(=O)O` (stereo not drawn) [NAFENOPIN], for which the IC50 entry is given as “Not Active”.

Another assay concerns the target Histamine H2 receptor (Homo sapiens, UniProt P25021). Further: in other assays of this panel Not Active means under 50% inhibition at 10 µM.
Assay: not given
In kind it is cell membranes, CHO-K1, Membrane. Particulars: cho-k1.
On to `COc1ccc2c(c1)c(CC(=O)O)c(C)n2C(=O)c1ccc(Cl)cc1` [INDOMETHACIN], for which the IC50 result was “Not Active”.
Still for that read-out and setting: then `CCc1c2c(nc3ccc(OC(=O)N4CCC(N5CCCCC5)CC4)cc13)-c1cc3c(c(=O)n1C2)COC(=O)[C@]3(O)CC` [IRINOTECAN], with “Not Active”; and `CC(C(=O)O)c1cccc(C(=O)c2ccccc2)c1` (stereo not drawn) [KETOPROFEN], with “Not Active”; and `Nc1ccn([C@@H]2CS[C@H](CO)O2)c(=O)n1` [LAMIVUDINE], with “Not Active”.
As to `O=S(=O)([O-])CCS.[Na+]` [MESNA], the IC50 entry is reported as “Not Active”.
Still for that read-out and setting: to `C#C[C@]1(O)CC[C@H]2[C@@H]3CCc4cc(OC)ccc4[C@H]3CC[C@@]21C` [MESTRANOL] belongs “Not Active”.
Turning to `CC(=O)Nc1cccc(O)c1` [METACETAMOL], the IC50 result is given as “Not Active”.
As to `Cc1ncc([N+](=O)[O-])n1CCO` [METRONIDAZOLE], the IC50 entry is “Not Active”.
On the same count and under the same terms, then `CC(C)(C(=O)c1cccnc1)c1cccnc1` [METYRAPONE], with “Not Active”.
On the same count and under the same terms, then `Oc1ccc(OCc2ccccc2)cc1` [MONOBENZONE], with “Not Active”.
The same measure, in the same setting: then `CC(C)(Oc1ccc(C2CCCc3ccccc32)cc1)C(=O)O` (stereo not drawn) [NAFENOPIN], with “Not Active”.

Tested on in another assay: not listed separately
The assay is described as follows: DRUGMATRIX: Imidazoline I2, Central radioligand binding (ligand: [3H] Idazoxan). The assay is classed as cell membranes, Rattus norvegicus, Wistar, Cerebral cortex, Membrane. The note with it: Not Active = under 50% inhibition at 10 µM.
As for `COc1ccc2c(c1)c(CC(=O)O)c(C)n2C(=O)c1ccc(Cl)cc1` [INDOMETHACIN], the IC50 entry was “Not Active” and the Ki result was “Not Active”.
For the molecule `CCc1c2c(nc3ccc(OC(=O)N4CCC(N5CCCCC5)CC4)cc13)-c1cc3c(c(=O)n1C2)COC(=O)[C@]3(O)CC` [IRINOTECAN], the IC50 result was “Not Active” and the Ki result is reported as “Not Active”.
In the case of `CC(C(=O)O)c1cccc(C(=O)c2ccccc2)c1` (stereo not drawn) [KETOPROFEN], the IC50 entry was “Not Active” and the Ki entry is “Not Active”.
Turning to `Nc1ccn([C@@H]2CS[C@H](CO)O2)c(=O)n1` [LAMIVUDINE], the IC50 entry is given as “Not Active” and the Ki entry is listed as “Not Active”.
Consider `O=S(=O)([O-])CCS.[Na+]` [MESNA], for which the IC50 result is reported as “Not Active” and the Ki result is “Not Active”.
For `C#C[C@]1(O)CC[C@H]2[C@@H]3CCc4cc(OC)ccc4[C@H]3CC[C@@]21C` [MESTRANOL], the IC50 result was “Not Active” and the Ki result is on record as “Not Active”.
As for `CC(=O)Nc1cccc(O)c1` [METACETAMOL], the IC50 result is “Not Active” and the Ki entry is “Not Active”.
On to `Cc1ncc([N+](=O)[O-])n1CCO` [METRONIDAZOLE], for which the IC50 result is “Not Active” and the inhibition constant (Ki) result is “Not Active”.
Consider `CC(C)(C(=O)c1cccnc1)c1cccnc1` [METYRAPONE], for which the IC50 result was “Not Active” and the Ki entry is given as “Not Active”.
Regarding `Oc1ccc(OCc2ccccc2)cc1` [MONOBENZONE], the IC50 entry is “Not Active” and the inhibitory constant (Ki) entry is “Not Active”.
Turning to `CC(C)(Oc1ccc(C2CCCc3ccccc32)cc1)C(=O)O` (stereo not drawn) [NAFENOPIN], the IC50 result is listed as “Not Active” and the Ki entry was “Not Active”.

In the next assay the target is T2, Cysteinyl leukotriene receptor 1 (Homo sapiens, UniProt Q9Y271). Further: in other assays of this panel Not Active means under 50% inhibition at 10 µM.
T2 sequence (Q9Y271 whole entry): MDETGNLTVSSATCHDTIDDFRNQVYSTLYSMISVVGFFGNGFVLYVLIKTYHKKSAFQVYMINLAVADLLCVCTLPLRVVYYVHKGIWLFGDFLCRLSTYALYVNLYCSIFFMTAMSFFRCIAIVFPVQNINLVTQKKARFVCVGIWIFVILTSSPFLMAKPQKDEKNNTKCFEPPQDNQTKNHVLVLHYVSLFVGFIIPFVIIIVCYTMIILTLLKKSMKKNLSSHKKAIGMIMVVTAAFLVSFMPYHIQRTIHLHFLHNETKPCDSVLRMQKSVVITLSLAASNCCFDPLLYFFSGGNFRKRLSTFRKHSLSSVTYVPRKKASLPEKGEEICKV
Assay: not given
The note with it: cho-k1. The assay is classed as cell membranes, CHO-K1, Membrane.
As for `COc1ccc2c(c1)c(CC(=O)O)c(C)n2C(=O)c1ccc(Cl)cc1` [INDOMETHACIN], the IC50 entry is “Not Active”.
Same read-out and setting: then `CCc1c2c(nc3ccc(OC(=O)N4CCC(N5CCCCC5)CC4)cc13)-c1cc3c(c(=O)n1C2)COC(=O)[C@]3(O)CC` [IRINOTECAN], with “Not Active”; and `CC(C(=O)O)c1cccc(C(=O)c2ccccc2)c1` (stereo not drawn) [KETOPROFEN], with “Not Active”; and `Nc1ccn([C@@H]2CS[C@H](CO)O2)c(=O)n1` [LAMIVUDINE], with “Not Active”.
Same read-out and setting: then `O=S(=O)([O-])CCS.[Na+]` [MESNA], with “Not Active”; and `C#C[C@]1(O)CC[C@H]2[C@@H]3CCc4cc(OC)ccc4[C@H]3CC[C@@]21C` [MESTRANOL], with “Not Active”.
Same read-out and setting: then `CC(=O)Nc1cccc(O)c1` [METACETAMOL], with “Not Active”.
As for `Cc1ncc([N+](=O)[O-])n1CCO` [METRONIDAZOLE], the IC50 entry was “Not Active”.
Still for that read-out and setting: then `CC(C)(C(=O)c1cccnc1)c1cccnc1` [METYRAPONE], with “Not Active”; and `Oc1ccc(OCc2ccccc2)cc1` [MONOBENZONE], with “Not Active”; and `CC(C)(Oc1ccc(C2CCCc3ccccc32)cc1)C(=O)O` (stereo not drawn) [NAFENOPIN], with “Not Active”.

The next assay concerns the target T3, Muscarinic acetylcholine receptor M4 (Homo sapiens, UniProt P08173). Further: in other assays of this panel Not Active means under 50% inhibition at 10 µM.
T3 sequence (P08173 whole entry): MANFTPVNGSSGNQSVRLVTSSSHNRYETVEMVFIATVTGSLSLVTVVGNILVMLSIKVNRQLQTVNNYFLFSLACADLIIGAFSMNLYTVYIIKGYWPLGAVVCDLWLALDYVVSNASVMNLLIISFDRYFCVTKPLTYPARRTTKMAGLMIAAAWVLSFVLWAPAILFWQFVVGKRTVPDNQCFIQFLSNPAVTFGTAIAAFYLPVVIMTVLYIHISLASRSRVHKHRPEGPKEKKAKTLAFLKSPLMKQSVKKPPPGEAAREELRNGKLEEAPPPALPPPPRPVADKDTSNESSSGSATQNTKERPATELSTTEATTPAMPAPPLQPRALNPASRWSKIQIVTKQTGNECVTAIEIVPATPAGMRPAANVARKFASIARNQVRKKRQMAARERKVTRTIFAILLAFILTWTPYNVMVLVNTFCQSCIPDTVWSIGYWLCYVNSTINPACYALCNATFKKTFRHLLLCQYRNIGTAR
Assay: not given
The assay is classed as cell membranes, CHO-K1, Membrane. Particulars: cho-k1.
On to `COc1ccc2c(c1)c(CC(=O)O)c(C)n2C(=O)c1ccc(Cl)cc1` [INDOMETHACIN], for which the IC50 entry is “Not Active”.
Still for that read-out and setting: then `CC(C(=O)O)c1cccc(C(=O)c2ccccc2)c1` (stereo not drawn) [KETOPROFEN], with “Not Active”; and `Nc1ccn([C@@H]2CS[C@H](CO)O2)c(=O)n1` [LAMIVUDINE], with “Not Active”.
The same measure, in the same setting: then `O=S(=O)([O-])CCS.[Na+]` [MESNA], with “Not Active”; and `C#C[C@]1(O)CC[C@H]2[C@@H]3CCc4cc(OC)ccc4[C@H]3CC[C@@]21C` [MESTRANOL], with “Not Active”.
The same measure, in the same setting: to `CC(=O)Nc1cccc(O)c1` [METACETAMOL] belongs “Not Active”.
Take `Cc1ncc([N+](=O)[O-])n1CCO` [METRONIDAZOLE]: the IC50 entry is “Not Active”.
For `CC(C)(C(=O)c1cccnc1)c1cccnc1` [METYRAPONE], the IC50 result is “Not Active”.
Same read-out and setting: then `Oc1ccc(OCc2ccccc2)cc1` [MONOBENZONE], with “Not Active”; and `CC(C)(Oc1ccc(C2CCCc3ccccc32)cc1)C(=O)O` (stereo not drawn) [NAFENOPIN], with “Not Active”.

Staying with this assay, now noted: read-out: IC50.
Regarding `CCc1c2c(nc3ccc(OC(=O)N4CCC(N5CCCCC5)CC4)cc13)-c1cc3c(c(=O)n1C2)COC(=O)[C@]3(O)CC` [IRINOTECAN], the IC50 was found to be 1560 nM.

The assay is the same for the next values; noted with them: read-out: Ki.
On to `CCc1c2c(nc3ccc(OC(=O)N4CCC(N5CCCCC5)CC4)cc13)-c1cc3c(c(=O)n1C2)COC(=O)[C@]3(O)CC` [IRINOTECAN], for which the Ki is 217 nM.

A further assay has as its target Tyrosine-protein kinase Fyn (Homo sapiens, UniProt P06241). Nature of the assay: biochemical. The note with it: insect cells. The assay is classed as cell-based, Insect cells.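 Further: enzymatic inhibition of Fyn kinase activity measured with Poly(Glu:Tyr) as the phosphorylation substrate; in other assays of this panel Not Active means under 50% inhibition at 10 µM.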
Take `COc1ccc2c(c1)c(CC(=O)O)c(C)n2C(=O)c1ccc(Cl)cc1` [INDOMETHACIN]: the IC50 result is on record as “Not Active”.
On to `CCc1c2c(nc3ccc(OC(=O)N4CCC(N5CCCCC5)CC4)cc13)-c1cc3c(c(=O)n1C2)COC(=O)[C@]3(O)CC` [IRINOTECAN], for which the IC50 entry is listed as “Not Active”.
As for `CC(C(=O)O)c1cccc(C(=O)c2ccccc2)c1` (stereo not drawn) [KETOPROFEN], the IC50 entry is recorded as “Not Active”.
Consider `Nc1ccn([C@@H]2CS[C@H](CO)O2)c(=O)n1` [LAMIVUDINE], for which the IC50 result is “Not Active”.
Still for that read-out and setting: then `O=S(=O)([O-])CCS.[Na+]` [MESNA], with “Not Active”; and `C#C[C@]1(O)CC[C@H]2[C@@H]3CCc4cc(OC)ccc4[C@H]3CC[C@@]21C` [MESTRANOL], with “Not Active”; and `CC(=O)Nc1cccc(O)c1` [METACETAMOL], with “Not Active”.
Still for that read-out and setting: then `Cc1ncc([N+](=O)[O-])n1CCO` [METRONIDAZOLE], with “Not Active”.
For `CC(C)(C(=O)c1cccnc1)c1cccnc1` [METYRAPONE], the IC50 result was “Not Active”.
Regarding `Oc1ccc(OCc2ccccc2)cc1` [MONOBENZONE], the IC50 result was “Not Active”.
Still for that read-out and setting: to `CC(C)(Oc1ccc(C2CCCc3ccccc32)cc1)C(=O)O` (stereo not drawn) [NAFENOPIN] belongs “Not Active”.
